From US7981903B2, “2-[2-{phenylamino}-1H-pyrrolo[2,3-D]pyrimidin-4-yl)amino] benzamide derivatives as IGF-1R inhibitors for the treatment of cancer” (GlaxoSmithKline LLC, priority 2007, dated 2011)
“And” between values parts separate entries of the source, which are not always exact repeats. Equal entries are not always repeated.

Columns and labels:
ALK = ALK (Homo sapiens, UniProt Q9UM73); test: ALK enzyme assay (HTRF); assay type: biochemical; conditions: 0.25 nM ALK, 15.0 μM ATP, values given as pIC50 category
Procedure, shortened: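 Isolated ALK phosphorylates a biotinylated tyrosine peptide, 120 min at 20° C; anti-phosphotyrosine Eu-cryptate/streptavidin-XL665 HTRF read after 60 min with EDTA-containing detection mix.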

NCI-H929 = test: Inhibition of cell proliferation (CellTiter-Glo or InCell analyzer), NCI-H929; assay type: cell-based; conditions: Homo sapiens, 72 h / 3 days, values given as IC50 category
Procedure, shortened: In one

[1] = biological target: T1, NIH-3T3 cells overexpressing human IR (Homo sapiens, UniProt P06213); test: IR cellular autophosphorylation (DELFIA); assay type: cell-based; conditions: 2 h compound, insulin 3 ug/ml for 15 minutes, IC50 category
T1 construct: expressed in transfected cells; host or cells: NIH-3T3 (mouse fibroblasts)
Procedure, shortened: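 Receptor autophosphorylation measured by DELFIA, capturing IGF-1R or IRβ and detecting with europium anti-pTyr, reported as percent of IGF-1- or insulin-stimulated signal. Compounds (30 uM to 1.5 nM) added 2 h before ligand, then 15 min stimulation (IGF-1 30 ng/ml or insulin 3 ug/ml).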

Colo205 = test: Inhibition of cell proliferation (CellTiter-Glo or InCell analyzer), Colo205; assay type: cell-based; conditions: Homo sapiens, COLO 205, 72 h / 3 days, values given as IC50 category
Procedure, shortened: In one

Chain of ALK (Q9UM73 19-1620): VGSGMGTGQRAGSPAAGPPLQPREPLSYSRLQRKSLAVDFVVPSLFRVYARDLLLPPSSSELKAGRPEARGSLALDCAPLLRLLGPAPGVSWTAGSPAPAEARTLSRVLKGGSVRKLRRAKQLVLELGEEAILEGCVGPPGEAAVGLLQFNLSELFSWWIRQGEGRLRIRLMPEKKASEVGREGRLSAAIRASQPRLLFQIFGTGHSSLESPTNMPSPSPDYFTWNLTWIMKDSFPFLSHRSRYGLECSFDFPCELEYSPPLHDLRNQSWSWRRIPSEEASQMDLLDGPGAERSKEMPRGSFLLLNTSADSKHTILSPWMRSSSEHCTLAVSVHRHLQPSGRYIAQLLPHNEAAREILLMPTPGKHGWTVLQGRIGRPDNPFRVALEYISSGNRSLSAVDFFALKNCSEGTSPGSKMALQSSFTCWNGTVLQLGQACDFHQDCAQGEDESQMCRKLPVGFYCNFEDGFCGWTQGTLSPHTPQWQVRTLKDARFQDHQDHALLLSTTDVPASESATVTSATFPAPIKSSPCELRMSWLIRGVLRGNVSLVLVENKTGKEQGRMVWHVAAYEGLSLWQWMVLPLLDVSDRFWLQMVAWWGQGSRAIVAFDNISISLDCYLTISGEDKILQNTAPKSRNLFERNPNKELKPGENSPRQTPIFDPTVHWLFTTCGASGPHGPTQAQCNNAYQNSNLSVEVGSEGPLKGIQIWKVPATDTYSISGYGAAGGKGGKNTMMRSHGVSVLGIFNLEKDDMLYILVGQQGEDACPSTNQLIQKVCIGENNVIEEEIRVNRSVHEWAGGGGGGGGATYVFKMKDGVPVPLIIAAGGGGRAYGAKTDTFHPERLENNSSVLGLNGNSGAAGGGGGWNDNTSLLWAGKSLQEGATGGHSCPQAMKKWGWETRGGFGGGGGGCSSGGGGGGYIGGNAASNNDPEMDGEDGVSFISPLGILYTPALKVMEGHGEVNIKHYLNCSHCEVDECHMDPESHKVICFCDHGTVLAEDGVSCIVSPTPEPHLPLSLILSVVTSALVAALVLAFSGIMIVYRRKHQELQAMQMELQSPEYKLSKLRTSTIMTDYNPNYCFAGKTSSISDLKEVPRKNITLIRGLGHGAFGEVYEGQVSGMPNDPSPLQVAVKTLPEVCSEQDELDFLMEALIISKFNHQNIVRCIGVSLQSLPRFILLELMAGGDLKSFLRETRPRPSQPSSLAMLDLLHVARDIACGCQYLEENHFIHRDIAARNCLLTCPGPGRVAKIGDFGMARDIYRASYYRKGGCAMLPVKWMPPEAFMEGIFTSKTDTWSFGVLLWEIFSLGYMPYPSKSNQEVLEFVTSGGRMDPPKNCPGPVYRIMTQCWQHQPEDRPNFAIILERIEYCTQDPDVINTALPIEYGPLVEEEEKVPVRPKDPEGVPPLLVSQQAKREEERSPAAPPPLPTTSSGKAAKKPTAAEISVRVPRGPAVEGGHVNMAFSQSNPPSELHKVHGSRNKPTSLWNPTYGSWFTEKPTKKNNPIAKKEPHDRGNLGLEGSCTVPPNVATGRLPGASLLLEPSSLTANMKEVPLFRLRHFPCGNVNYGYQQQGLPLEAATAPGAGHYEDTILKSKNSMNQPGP
T1 sequence (P06213 28-1382): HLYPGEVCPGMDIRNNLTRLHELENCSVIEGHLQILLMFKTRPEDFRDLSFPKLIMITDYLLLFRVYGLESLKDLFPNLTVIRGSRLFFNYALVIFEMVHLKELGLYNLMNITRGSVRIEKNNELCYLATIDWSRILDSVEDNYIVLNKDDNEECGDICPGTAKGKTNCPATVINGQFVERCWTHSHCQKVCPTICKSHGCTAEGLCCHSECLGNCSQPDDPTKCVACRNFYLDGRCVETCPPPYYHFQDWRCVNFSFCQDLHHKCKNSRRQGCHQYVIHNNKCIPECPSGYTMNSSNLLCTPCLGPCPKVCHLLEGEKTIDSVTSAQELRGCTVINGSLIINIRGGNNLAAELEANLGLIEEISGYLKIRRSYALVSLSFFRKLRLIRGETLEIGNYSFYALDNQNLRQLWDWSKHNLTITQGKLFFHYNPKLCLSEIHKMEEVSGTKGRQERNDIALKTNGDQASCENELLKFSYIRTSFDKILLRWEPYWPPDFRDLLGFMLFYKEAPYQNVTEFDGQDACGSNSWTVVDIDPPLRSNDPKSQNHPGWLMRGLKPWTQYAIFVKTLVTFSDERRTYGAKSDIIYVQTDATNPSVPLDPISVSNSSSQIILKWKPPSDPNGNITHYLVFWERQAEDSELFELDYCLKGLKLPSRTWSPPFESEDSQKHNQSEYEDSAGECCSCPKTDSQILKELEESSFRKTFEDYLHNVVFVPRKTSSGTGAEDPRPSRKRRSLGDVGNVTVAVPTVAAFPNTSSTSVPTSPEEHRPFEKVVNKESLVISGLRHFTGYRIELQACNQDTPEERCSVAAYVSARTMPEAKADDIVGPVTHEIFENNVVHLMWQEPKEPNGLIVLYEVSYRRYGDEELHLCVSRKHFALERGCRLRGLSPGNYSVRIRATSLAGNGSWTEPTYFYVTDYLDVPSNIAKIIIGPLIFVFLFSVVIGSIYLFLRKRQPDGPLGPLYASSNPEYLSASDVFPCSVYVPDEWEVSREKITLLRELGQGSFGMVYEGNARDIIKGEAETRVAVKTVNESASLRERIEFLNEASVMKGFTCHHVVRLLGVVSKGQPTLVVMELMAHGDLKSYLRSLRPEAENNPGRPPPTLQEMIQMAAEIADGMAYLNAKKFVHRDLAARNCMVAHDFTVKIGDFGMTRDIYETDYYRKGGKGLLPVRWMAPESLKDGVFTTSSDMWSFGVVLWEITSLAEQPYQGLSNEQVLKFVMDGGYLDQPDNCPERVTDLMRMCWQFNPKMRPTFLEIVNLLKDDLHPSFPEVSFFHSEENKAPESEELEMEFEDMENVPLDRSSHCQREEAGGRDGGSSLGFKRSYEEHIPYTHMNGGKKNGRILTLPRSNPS

IC50 (ALK) | IC50 (NCI-H929) [µM] | IC50 [1] [µM] | IC50 (Colo205) [µM] | Compound
0.00126 to 0.00398 µM | 0.25 to 1 | 0.1 to 0.5 | 0.25 to 1 | CNCC(=O)N1CCc2cc(OC)c(Nc3nc(Nc4cccc(F)c4C(N)=O)c4cc[nH]c4n3)cc21 [Example 142, 2-fluoro-6-[(2-{[1-(N-methylglycyl)-5-(methyloxy)-2,3-dihydro-1H-indol-6-yl]amino}-1H-pyrrolo[2,3-d]pyrimidin-4-yl)amino]benzamide]
0.000251 to 0.001 µM | > 1 | > 0.5 | > 1 | COc1cc2c(cc1Nc1nc(Nc3cc(F)cc(F)c3C(=O)NC(C)C)c3cc[nH]c3n1)N(C(=O)CN(C)C)CC2 [Example 153, 2-[(2-{[1-(N,N-dimethylglycyl)-5-(methyloxy)-2,3-dihydro-1H-indol-6-yl]amino}-1H-pyrrolo[2,3-d]pyrimidin-4-yl)amino]-4,6-difluoro-N-(1-methylethyl)benzamide]
0.00126 to 0.00398 µM | 0.25 to 1 | > 0.5 | > 1 | COc1cc2c(cc1Nc1nc(Nc3cc(F)cc(F)c3C(=O)NCC(C)C)c3cc[nH]c3n1)N(C(=O)CN(C)C)CC2 [Example 154, 2-[(2-{[1-(N,N-dimethylglycyl)-5-(methyloxy)-2,3-dihydro-1H-indol-6-yl]amino}-1H-pyrrolo[2,3-d]pyrimidin-4-yl)amino]-4,6-difluoro-N-(2-methylpropyl)benzamide]
0.00501 to 0.2 µM | > 1 | 0.1 to 0.5 | > 1 | COc1cc2c(cc1Nc1nc(Nc3cc(F)cc(F)c3C(=O)NCc3ccc(F)cc3)c3cc[nH]c3n1)N(C(=O)CN(C)C)CC2 [Example 155, 2-[(2-{[1-(N,N-dimethylglycyl)-5-(methyloxy)-2,3-dihydro-1H-indol-6-yl]amino}-1H-pyrrolo[2,3-d]pyrimidin-4-yl)amino]-4,6-difluoro-N-[(4-fluorophenyl)methyl]benzamide]
0.000251 to 0.001 µM | 0.25 to 1 | 0.1 to 0.5 | > 1 | CCCNC(=O)c1c(F)cccc1Nc1nc(Nc2cc3c(cc2OC)CCN3C(=O)CN(C)C)nc2[nH]ccc12 [Example 156, 2-[(2-{[1-(N,N-dimethylglycyl)-5-(methyloxy)-2,3-dihydro-1H-indol-6-yl]amino}-1H-pyrrolo[2,3-d]pyrimidin-4-yl)amino]-6-fluoro-N-propylbenzamide]
0.00126 to 0.00398 µM | 0.25 to 1 | 0.1 to 0.5 | > 1 | COc1cc2c(cc1Nc1nc(Nc3cccc(F)c3C(=O)NCC(C)C)c3cc[nH]c3n1)N(C(=O)CN(C)C)CC2 [Example 157, 2-[(2-{[1-(N,N-dimethylglycyl)-5-(methyloxy)-2,3-dihydro-1H-indol-6-yl]amino}-1H-pyrrolo[2,3-d]pyrimidin-4-yl)amino]-6-fluoro-N-(2-methylpropyl)benzamide]
0.000251 to 0.001 µM | 0.25 to 1 | > 0.5 | 0.25 to 1 | COc1cc2c(cc1Nc1nc(Nc3cccc(F)c3C(=O)NC(C)C)c3cc[nH]c3n1)N(C(=O)CN(C)C)CC2 [Example 158, 2-[(2-{[1-(N,N-dimethylglycyl)-5-(methyloxy)-2,3-dihydro-1H-indol-6-yl]amino}-1H-pyrrolo[2,3-d]pyrimidin-4-yl)amino]-6-fluoro-N-(1-methylethyl)benzamide]
0.00126 to 0.00398 µM | < 0.25 | < 0.1 | < 0.25 | COc1cc2c(cc1Nc1nc(Nc3ccc(F)c(F)c3C(N)=O)c3cc[nH]c3n1)N(C(=O)CN(C)C)CCC2 [Example 162, 6-[(2-{[1-(N,N-dimethylglycyl)-6-(methyloxy)-1,2,3,4-tetrahydro-7-quinolinyl]amino}-1H-pyrrolo[2,3-d]pyrimidin-4-yl)amino]-2,3-difluorobenzamide]
0.00126 to 0.00398 µM | < 0.25 | < 0.1 | 0.25 to 1 | CNC(=O)c1c(Nc2nc(Nc3cc4c(cc3OC)CCCN4C(=O)CN(C)C)nc3[nH]ccc23)ccc(F)c1F [Example 163, 6-[(2-{[1-(N,N-dimethylglycyl)-6-(methyloxy)-1,2,3,4-tetrahydro-7-quinolinyl]amino}-1H-pyrrolo[2,3-d]pyrimidin-4-yl)amino]-2,3-difluoro-N-methylbenzamide]
0.00126 to 0.00398 µM | < 0.25 | < 0.1 | 0.25 to 1 | CCN(C)CC(=O)N1CCc2cc(OC)c(Nc3nc(Nc4cccc(F)c4C(N)=O)c4cc[nH]c4n3)cc21 [Example 166, 2-[(2-{[1-(N-ethyl-N-methylglycyl)-5-(methyloxy)-2,3-dihydro-1H-indol-6-yl]amino}-1H-pyrrolo[2,3-d]pyrimidin-4-yl)amino]-6-fluorobenzamide]
0.00126 to 0.00398 µM and 0.000251 to 0.001 µM | < 0.25 | 0.1 to 0.5 | 0.25 to 1 | CCCN(C)CC(=O)N1CCc2cc(OC)c(Nc3nc(Nc4cccc(F)c4C(=O)NC)c4cc[nH]c4n3)cc21 [Example 167, 2-fluoro-N-methyl-6-[(2-{[5-(methyloxy)-1-(N-methyl-N-propylglycyl)-2,3-dihydro-1H-indol-6-yl]amino}-1H-pyrrolo[2,3-d]pyrimidin-4-yl)amino]benzamide]
0.00126 to 0.00398 µM | 0.25 to 1 | 0.1 to 0.5 | 0.25 to 1 | CNC(=O)c1c(F)cc(Cl)cc1Nc1nc(Nc2cc3c(cc2OC)CCCN3C(=O)CN2CCCC2)nc2[nH]ccc12 [Example 174, 4-chloro-2-fluoro-N-methyl-6-[(2-{[6-(methyloxy)-1-(1-pyrrolidinylacetyl)-1,2,3,4-tetrahydro-7-quinolinyl]amino}-1H-pyrrolo[2,3-d]pyrimidin-4-yl)amino]benzamide]
0.00126 to 0.00398 µM | 0.25 to 1 | 0.1 to 0.5 | > 1 | CCN(CCO)CC(=O)N1CCc2cc(OC)c(Nc3nc(Nc4cccc(F)c4C(N)=O)c4cc[nH]c4n3)cc21 [Example 177, 2-[(2-{[1-[N-ethyl-N-(2-hydroxyethyl)glycyl]-5-(methyloxy)-2,3-dihydro-1H-indol-6-yl]amino}-1H-pyrrolo[2,3-d]pyrimidin-4-yl)amino]-6-fluorobenzamide]
0.00126 to 0.00398 µM | < 0.25 | > 0.5 | < 0.25 | COc1cc2c(cc1Nc1nc(Nc3cccc(F)c3C(N)=O)c3cc[nH]c3n1)CCN2C(=O)CN(C)C [Example 197, 2-[(2-{[1-(N,N-dimethylglycyl)-6-(methyloxy)-2,3-dihydro-1H-indol-5-yl]amino}-1H-pyrrolo[2,3-d]pyrimidin-4-yl)amino]-6-fluorobenzamide]
0.00126 to 0.00398 µM | 0.25 to 1 | > 0.5 | < 0.25 | CNC(=O)c1c(F)cccc1Nc1nc(Nc2cc3c(cc2OC)N(C(=O)CN(C)C)CC3)nc2[nH]ccc12 [Example 198, 2-[(2-{[1-(N,N-dimethylglycyl)-6-(methyloxy)-2,3-dihydro-1H-indol-5-yl]amino}-1H-pyrrolo[2,3-d]pyrimidin-4-yl)amino]-6-fluoro-N-methylbenzamide]
0.000251 to 0.001 µM | < 0.25 | < 0.1 | < 0.25 | COc1cc(N2CCN(C(C)C)CC2)ccc1Nc1nc(Nc2cccc3c2C(=O)NC3)c2cc[nH]c2n1 [Example 199, 7-[(2-{[4-[4-(1-methylethyl)-1-piperazinyl]-2-(methyloxy)phenyl]amino}-1H-pyrrolo[2,3-d]pyrimidin-4-yl)amino]-2,3-dihydro-1H-isoindol-1-one]
0.00126 to 0.00398 µM | < 0.25 | 0.1 to 0.5 | 0.25 to 1 | CCCN1CCC(COc2ccc(Nc3nc(Nc4cccc(F)c4C(N)=O)c4cc[nH]c4n3)c(OC)c2)CC1 [Example 206, 2-fluoro-6-({2-[(2-(methyloxy)-4-{[(1-propyl-4-piperidinyl)methyl]oxy}phenyl)amino]-1H-pyrrolo[2,3-d]pyrimidin-4-yl}amino)benzamide]
0.000251 to 0.001 µM | < 0.25 | 0.1 to 0.5 | < 0.25 | COc1cc(N2CCCN(C)CC2)ccc1Nc1nc(Nc2cccc(F)c2C(N)=O)c2cc[nH]c2n1 [Example 209, 2-fluoro-6-[(2-{[4-(4-methylhexahydro-1H-1,4-diazepin-1-yl)-2-(methyloxy)phenyl]amino}-1H-pyrrolo[2,3-d]pyrimidin-4-yl)amino]benzamide]
0.00126 to 0.00398 µM | < 0.25 | 0.1 to 0.5 | 0.25 to 1 | CNC(=O)c1c(F)cccc1Nc1nc(Nc2cc3c(cc2OC)CCCN3C(=O)CN(C)C)nc2[nH]ccc12 [Example 212, 2-[(2-{[1-(N,N-dimethylglycyl)-6-(methyloxy)-1,2,3,4-tetrahydro-7-quinolinyl]amino}-1H-pyrrolo[2,3-d]pyrimidin-4-yl)amino]-6-fluoro-N-methylbenzamide]
0.00501 to 0.2 µM | < 0.25 | < 0.1 | 0.25 to 1 | CNC(=O)c1c(F)cccc1Nc1nc(Nc2cc3c(cc2OC)CCCN3C(=O)CN2CCCCC2)nc2[nH]ccc12 [Example 217, 2-fluoro-N-methyl-6-[(2-{[6-(methyloxy)-1-(1-piperidinylacetyl)-1,2,3,4-tetrahydro-7-quinolinyl]amino}-1H-pyrrolo[2,3-d]pyrimidin-4-yl)amino]benzamide]
0.00126 to 0.00398 µM | < 0.25 | < 0.1 | 0.25 to 1 | COc1cc2c(cc1Nc1nc(Nc3cccc(F)c3C(N)=O)c3cc[nH]c3n1)CN(CCF)CC2 [Example 233, 2-fluoro-6-[(2-{[2-(2-fluoroethyl)-6-(methyloxy)-1,2,3,4-tetrahydro-7-isoquinolinyl]amino}-1H-pyrrolo[2,3-d]pyrimidin-4-yl)amino]benzamide]
